Measurements: PubChem BioAssay (NCI)
Where “and” joins values, the source holds several entries; their conditions need not be identical. Identical values can stand only once.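 Five compound concentrations were applied to cells in 96-well plates for 48 hours; endpoints were derived by simple linear interpolation of the resulting dose-response curve. GI50: concentration for 50% inhibition of growth. TGI is the concentration that stops growth completely.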

What was measured:
Assay in all cases: NCI tumour cell line growth inhibition, 48 h
[1] = test system: DU-145 prostate
[2] = test system: UO-31 renal
[3] = test system: SNB-19 CNS
[4] = test system: COLO 205 colon
[5] = test system: HT29 colon
[6] = test system: HOP-62 NSCLC
[7] = test system: K-562 leukemia
[8] = test system: HL-60(TB) leukemia
[9] = test system: A498 renal
[10] = test system: RXF 393 renal

Structure (SMILES)	GI50 [1]	TGI [1]	GI50 [2]	TGI [2]	GI50 [3]	TGI [3]	GI50 [4]	TGI [4]	GI50 [5]	TGI [5]	GI50 [6]	TGI [6]	GI50 [7]	TGI [7]	GI50 [8]	TGI [8]	GI50 [9]	TGI [9]	TGI [10]	GI50 [10]
O=C(Nc1ccc(-n2cc(-c3ccncc3)c(-c3ccc(Cl)c(O)c3)n2)cc1)c1ccc(Cl)c(Cl)c1	> 100 µM	> 100 µM	2.83 µM	8.62 µM	> 100 µM	> 100 µM	4.3 µM	> 100 µM	2.6 µM	> 100 µM	0.711 µM	2.65 µM	1.32 µM	> 100 µM	2.97 µM	6.35 µM	35.7 µM	> 100 µM	–	–
CN(C)CN(C)c1nc(N(C)C)nc(N(C)C)n1	–	–	–	> 100 µM	–	> 100 µM	–	> 100 µM	–	> 100 µM	–	> 100 µM	–	> 100 µM	–	> 100 µM	–	> 100 µM	> 100 µM	–
O=C(N[C@H]1CC2(C=C(I)C(=O)C(I)=C2)OC1=O)OCc1ccccc1	–	–	–	32.1 µM	–	47.6 µM	–	28.1 µM	–	35.8 µM	–	45.6 µM	–	33.5 µM	–	21.4 µM	–	> 100 µM	28.8 µM	–
NC(=O)N1N=C2c3ccccc3OC[C@H]2[C@@H]1c1ccccc1	–	–	–	> 100 µM	–	> 100 µM	–	51.5 µM	–	67.6 µM	–	> 100 µM	–	> 100 µM	–	61.7 µM	–	> 81.5 µM	8.7 µM	–
O=C(Cn1ccnc1[N+](=O)[O-])NCc1ccc(F)cc1	–	–	–	> 100 µM	–	> 100 µM	–	> 100 µM	–	> 100 µM	–	> 100 µM	–	> 100 µM	–	> 100 µM	–	> 100 µM	> 100 µM	–
CC[C@]1(O)C[C@@H]2CN(CCc3c([nH]c4ccccc34)[C@@](C(=O)OC)(c3cc4c(cc3OC)N(C)[C@H]3[C@@](O)(C(=O)OC)[C@H](OC(=O)CCCBr)[C@]5(CC)C=CCN6CC[C@]43[C@@H]65)C2)C1	< 0.01 µM	1.43 µM	0.196 µM	6.55 µM	< 0.0215 µM	> 100 µM	–	–	< 0.01 µM	> 100 µM	0.0386 µM	> 100 µM	< 0.01 µM	> 100 µM	–	–	< 0.0114 µM	< 0.0258 µM	< 0.01 µM	< 0.01 µM
O=C(NCCOC(=O)CCCCCCCCC(=O)OCCNC(=O)NC(=O)c1cn(Cc2ccccc2)c(=O)[nH]c1=O)NC(=O)c1cn(Cc2ccccc2)c(=O)[nH]c1=O	–	–	–	> 100 µM	–	> 100 µM	–	> 100 µM	–	> 100 µM	–	> 100 µM	–	> 100 µM	–	> 100 µM	–	> 100 µM	–	–
Nc1cccc(C(=O)/C=C/c2ccccc2O)c1	–	–	–	> 100 µM	–	> 100 µM	–	> 100 µM	–	> 100 µM	–	> 100 µM	–	> 100 µM	–	46.9 µM	–	> 100 µM	> 100 µM	–
COc1cc([N+](=O)[O-])c(S(=O)(=O)O)cc1-[n+]1nc(C(=O)Nc2ccccc2)nn1-c1ccc([N+](=O)[O-])c(S(=O)(=O)[O-])c1	–	> 100 µM	–	> 100 µM	–	> 100 µM	–	> 100 µM	–	> 100 µM	–	> 100 µM	–	> 100 µM	–	> 100 µM	–	–	> 100 µM	–
Cc1cc2nc3c(C(OC4OC(CO)C(O)C(O)C4O)C(O)CO)nn(-c4ccc(F)cc4)c3nc2cc1C (configuration not stated)	–	–	–	> 100 µM	–	> 100 µM	–	–	–	> 100 µM	–	> 100 µM	–	> 100 µM	–	–	–	> 100 µM	> 100 µM	–
COc1cc2ccc(CC(=O)O)cc2cc1OC	–	–	–	> 100 µM	–	> 100 µM	–	> 100 µM	–	> 100 µM	–	> 100 µM	–	> 100 µM	–	> 100 µM	–	> 100 µM	> 100 µM	–
Cc1ccc(-n2cc(/C(N)=N/O)c3ccccc3c2=O)cc1	–	–	–	> 100 µM	–	> 100 µM	–	> 100 µM	–	> 100 µM	–	> 100 µM	–	> 100 µM	–	> 100 µM	–	–	–	–
O=S1(=O)CS(=O)(=O)OCCCCCO1	–	–	–	> 100 µM	–	> 100 µM	–	> 100 µM	–	> 100 µM	–	–	–	> 100 µM	–	–	–	> 100 µM	> 100 µM	–
CC(=O)Nc1ccc2c(c1)[nH]c(=O)c1cc(Cl)ccc12	–	> 100 µM	–	> 100 µM	–	> 100 µM	–	> 100 µM	–	41.5 µM	–	> 100 µM	–	> 100 µM	–	> 100 µM	–	> 100 µM	–	–
CC(=O)O[C@H]1C(=O)[C@@]2(C)C([C@H](OC(=O)c3ccccc3)[C@]3(O)C[C@H](OC(=O)[C@H](O)[C@@H](NC(=O)c4ccc(Cl)cc4)c4ccccc4)C(C)=C1C3(C)C)C1(OC(C)=O)CO[C@@H]1C[C@@H]2O (some centres not stated)	–	0.452 µM	4.77 µM	25 µM and 53.8 µM	0.0849 µM	25 µM and > 100 µM	–	–	–	10.4 µM	0.261 µM	25 µM and 25.2 µM	–	> 25 µM and 12.5 µM	–	0.00466 µM	11.1 µM	25 µM and > 100 µM	–	0.157 µM
O=C(CC/C(CC(=O)c1ccc(Cl)cc1)=N\O)Nc1cccc(Cl)c1	–	–	–	> 100 µM	–	> 100 µM	–	> 100 µM	–	> 100 µM	–	> 100 µM	–	> 100 µM	–	–	–	> 100 µM	–	–
Cc1ccccc1NC(=O)C(=O)CC(=O)c1sc(-n2nc(-c3ccccc3)cc2-c2ccccc2)nc1C	–	–	–	> 100 µM	–	> 100 µM	–	> 100 µM	–	> 100 µM	–	> 100 µM	–	> 100 µM	–	> 100 µM	–	> 100 µM	> 100 µM	–
c1ccc2c(c1)n1nnnc1c1nnnn21	–	–	–	> 100 µM	–	> 100 µM	–	> 100 µM	–	> 100 µM	–	> 100 µM	–	> 100 µM	–	–	–	> 100 µM	> 100 µM	–
Clc1ccc(/C=C/c2csnn2)cc1	–	–	–	> 100 µM	–	> 100 µM	–	> 100 µM	–	> 100 µM	–	> 100 µM	–	> 100 µM	–	> 100 µM	–	> 100 µM	> 100 µM	–
Cc1cccc(NC(=O)CSc2nnc(-c3ccc(N=Cc4ccc(Cl)cc4)cc3)o2)c1	–	–	–	> 100 µM	–	> 100 µM	–	> 100 µM	–	> 100 µM	–	> 100 µM	–	> 100 µM	–	> 100 µM	–	–	> 100 µM	–
COc1cc2c(c(OC)c1OC)-c1ccc(SC)c(=O)cc1C(CC(=O)Oc1ccccc1F)C2 (configuration not stated)	–	–	–	> 7.5 µM	–	> 7.5 µM	–	0.0376 µM	–	0.0324 µM	–	> 7.5 µM	–	> 7.5 µM	–	1.37 µM	–	6.77 µM	–	–
